Laboratory results reported in publication PMC5218480 (PLoS ONE, 2017).

Tested on: MV-4-11 cells
Assay: Gene expression microarray analysis (Affymetrix PrimeView) and GSEA
Type: cell-based, human
Design: RFU PODN (11730768_x_at) / Fold change /veh PODN (11730768_x_at) / RFU LINC00158 (11744669_a_at) / Fold change /veh LINC00158 (11744669_a_at) / RFU DUSP10 (11751237_a_at) / Fold change /veh DUSP10 (11751237_a_at) / RFU ID3 (11757404_x_at) / Fold change /veh ID3 (11757404_x_at) / RFU PLEKHG5 (11737974_s_at) / Fold change /veh PLEKHG5 (11737974_s_at) / RFU LRRC4B (11730491_at) / Fold change /veh LRRC4B (11730491_at) / RFU GIMAP4 (11747438_a_at) / Fold change /veh GIMAP4 (11747438_a_at) / RFU KRT8 (11758183_x_at) / Fold change /veh KRT8 (11758183_x_at) / RFU CNN1 (11734310_a_at) / Fold change /veh CNN1 (11734310_a_at) / RFU VPS37D (11726825_at) / Fold change /veh VPS37D (11726825_at) / RFU C10orf10 (11716522_x_at) / Fold change /veh C10orf10 (11716522_x_at) / RFU KIR2DL2 /// KIR2DL4 /// KIR2DL5A /// KIR2DL5B /// KIR2DS1 /// KIR2DS2 /// KIR2DS3 /// KIR2DS4 /// KIR3DL3 /// KIR3DL3 /// KIR3DS1 (11738374_at) / Fold change /veh KIR2DL2 /// KIR2DL4 /// KIR2DL5A /// KIR2DL5B /// KIR2DS1 /// KIR2DS2 /// KIR2DS3 /// KIR2DS4 /// KIR3DL3 /// KIR3DL3 /// KIR3DS1 (11738374_at) / RFU C1QL1 (11718748_at) / Fold change /veh C1QL1 (11718748_at) / RFU TMPRSS4 (11747572_a_at) / Fold change /veh TMPRSS4 (11747572_a_at) / RFU HAMP (11756126_x_at) / Fold change /veh HAMP (11756126_x_at) / RFU RNFT2 (11725882_a_at) / Fold change /veh RNFT2 (11725882_a_at) / RFU NR4A2 (11747474_a_at) / Fold change /veh NR4A2 (11747474_a_at) / RFU ABCC12 (11746883_a_at) / Fold change /veh ABCC12 (11746883_a_at) / RFU TMEM136 (11760407_x_at) / Fold change /veh TMEM136 (11760407_x_at) / RFU CLDN22 /// WWC2 (11732394_at) / Fold change /veh CLDN22 /// WWC2 (11732394_at) / RFU HLA-DPB1 (11760878_x_at) / Fold change /veh HLA-DPB1 (11760878_x_at) / RFU SPINT1 (11716480_a_at) / Fold change /veh SPINT1 (11716480_a_at) / RFU GAP43 (11754022_s_at) / Fold change /veh GAP43 (11754022_s_at) / RFU A4GNT (11735810_at) / Fold change /veh A4GNT (11735810_at) / RFU PRB3 (11715151_x_at) / Fold change /veh PRB3 (11715151_x_at) / RFU TUBB4B (11761932_at) / Fold change /veh TUBB4B (11761932_at) / RFU CAPN14 (11732068_a_at) / Fold change /veh CAPN14 (11732068_a_at) / RFU TMCC2 (11721928_a_at) / Fold change /veh TMCC2 (11721928_a_at) / RFU IRGQ (11745062_a_at) / Fold change /veh IRGQ (11745062_a_at) / RFU FAM174B (11720279_a_at) / Fold change /veh FAM174B (11720279_a_at) / RFU TMPRSS4 (11748680_a_at) / Fold change /veh TMPRSS4 (11748680_a_at) / RFU FAM212B (11763350_a_at) / Fold change /veh FAM212B (11763350_a_at) / RFU PLEKHG5 (11743358_a_at) / Fold change /veh PLEKHG5 (11743358_a_at) / RFU ZSCAN30 (11745921_a_at) / Fold change /veh ZSCAN30 (11745921_a_at) / RFU CMKLR1 (11741424_a_at) / Fold change /veh CMKLR1 (11741424_a_at) / RFU LOC101060620 /// MAPK8IP1 (11723275_at) / Fold change /veh LOC101060620 /// MAPK8IP1 (11723275_at) / RFU SPTSSB (11747773_x_at) / Fold change /veh SPTSSB (11747773_x_at) / RFU PRSS12 (11739890_at) / Fold change /veh PRSS12 (11739890_at) / RFU BIN1 (11741810_x_at) / Fold change /veh BIN1 (11741810_x_at) / RFU WNT11 (11732464_a_at) / Fold change /veh WNT11 (11732464_a_at) / RFU C10orf10 (11716521_a_at) / Fold change /veh C10orf10 (11716521_a_at) / RFU C5orf56 (11738089_at) / Fold change /veh C5orf56 (11738089_at) / RFU CYB561 (11721691_x_at) / Fold change /veh CYB561 (11721691_x_at) / RFU ANKRD19P (11752326_a_at) / Fold change /veh ANKRD19P (11752326_a_at) / RFU OR2T12 /// OR2T33 /// OR2T8 (11738714_s_at) / Fold change /veh OR2T12 /// OR2T33 /// OR2T8 (11738714_s_at) / RFU VCAN (11748164_a_at) / Fold change /veh VCAN (11748164_a_at) / RFU JSRP1 (11732532_at) / Fold change /veh JSRP1 (11732532_at) / RFU KRTAP10-11 (11738290_x_at) / Fold change /veh KRTAP10-11 (11738290_x_at) / RFU MYO3A (11730013_a_at) / Fold change /veh MYO3A (11730013_a_at) / RFU EBF3 (11725865_a_at) / Fold change /veh EBF3 (11725865_a_at) / RFU CAMK2N1 (11719241_x_at) / Fold change /veh CAMK2N1 (11719241_x_at) / RFU C5orf56 (11738088_a_at) / Fold change /veh C5orf56 (11738088_a_at) / RFU OLFML3 (11715873_a_at) / Fold change /veh OLFML3 (11715873_a_at) / RFU LOC100653217 /// NTM (11731650_a_at) / Fold change /veh LOC100653217 /// NTM (11731650_a_at) / RFU MAPK11 (11762145_a_at) / Fold change /veh MAPK11 (11762145_a_at) / RFU FIZ1 (11724087_x_at) / Fold change /veh FIZ1 (11724087_x_at) / RFU OASL (11726364_x_at) / Fold change /veh OASL (11726364_x_at) / RFU SOX15 (11748057_x_at) / Fold change /veh SOX15 (11748057_x_at) / RFU CD79A (11719716_a_at) / Fold change /veh CD79A (11719716_a_at) / RFU HIST1H1D (11736915_at) / Fold change /veh HIST1H1D (11736915_at) / RFU CASKIN2 (11723855_a_at) / Fold change /veh CASKIN2 (11723855_a_at) / RFU LOC730098 (11760151_x_at) / Fold change /veh LOC730098 (11760151_x_at) / RFU OR4N2 (11742367_at) / Fold change /veh OR4N2 (11742367_at) / RFU PRRT2 (11749266_a_at) / Fold change /veh PRRT2 (11749266_a_at) / RFU SNX32 (11753110_a_at) / Fold change /veh SNX32 (11753110_a_at) / RFU CDHR5 (11726645_a_at) / Fold change /veh CDHR5 (11726645_a_at) / RFU RCAN1 (11760418_a_at) / Fold change /veh RCAN1 (11760418_a_at) / RFU FAM167A (11723789_a_at) / Fold change /veh FAM167A (11723789_a_at) / RFU FAM26E (11764081_at) / Fold change /veh FAM26E (11764081_at) / RFU ISYNA1 (11749810_s_at) / Fold change /veh ISYNA1 (11749810_s_at) / RFU ACY1 (11761880_at) / Fold change /veh ACY1 (11761880_at) / RFU 11764098_at / Fold change /veh 11764098_at / RFU SAMD14 (11745864_x_at) / Fold change /veh SAMD14 (11745864_x_at) / RFU NPB (11741838_a_at) / Fold change /veh NPB (11741838_a_at) / RFU TMPRSS6 (11731388_a_at) / Fold change /veh TMPRSS6 (11731388_a_at) / RFU KRTAP10-2 (11738614_at) / Fold change /veh KRTAP10-2 (11738614_at) / RFU ARHGAP8 /// PRR5-ARHGAP8 (11727945_x_at) / Fold change /veh ARHGAP8 /// PRR5-ARHGAP8 (11727945_x_at) / RFU KRTAP5-7 /// NADSYN1 (11734609_at) / Fold change /veh KRTAP5-7 /// NADSYN1 (11734609_at) / RFU RASL12 (11751679_a_at) / Fold change /veh RASL12 (11751679_a_at) / RFU CDKN2B (11736163_a_at) / Fold change /veh CDKN2B (11736163_a_at) / RFU PRF1 (11729649_at) / Fold change /veh PRF1 (11729649_at) / RFU, ZNF638 /// ZNF638-IT1 / Fold change vs veh, ZNF638 /// ZNF638-IT1 / RFU, PANK3 / Fold change vs veh, PANK3 / RFU, SH3YL1 / Fold change vs veh, SH3YL1 / RFU, ZEB2 / Fold change vs veh, ZEB2 / RFU, NRIP1 / Fold change vs veh, NRIP1 / RFU, PTTG1IP / Fold change vs veh, PTTG1IP / RFU, CAPN2 / Fold change vs veh, CAPN2 / RFU, MED14 / Fold change vs veh, MED14 / RFU, SNORA58 / Fold change vs veh, SNORA58 / RFU, C1orf63 / Fold change vs veh, C1orf63 / RFU, LRRFIP1 / Fold change vs veh, LRRFIP1 / RFU, NDUFAF7 / Fold change vs veh, NDUFAF7 / RFU, SLC12A2 / Fold change vs veh, SLC12A2 / RFU, IBTK / Fold change vs veh, IBTK / RFU, ESF1 / Fold change vs veh, ESF1 / Fold change vs veh, TMEM50B / RFU, TAOK1 / Fold change vs veh, TAOK1 / RFU, ACBD3 / Fold change vs veh, ACBD3 / RFU, TMA16 / Fold change vs veh, TMA16 / RFU, RWDD3 / Fold change vs veh, RWDD3 / RFU, BCAT1 / Fold change vs veh, BCAT1 / RFU, EDEM3 / Fold change vs veh, EDEM3 / RFU, TMEM33 / Fold change vs veh, TMEM33 / RFU, WDR75 / Fold change vs veh, WDR75 / RFU, AHCTF1 / Fold change vs veh, AHCTF1 / RFU, TFRC / Fold change vs veh, TFRC / RFU, ZDHHC17 / Fold change vs veh, ZDHHC17 / RFU, NOM1 / Fold change vs veh, NOM1 / RFU, ARL8B / Fold change vs veh, ARL8B / RFU, ZBTB11 / Fold change vs veh, ZBTB11 / RFU, TAMM41 / Fold change vs veh, TAMM41 / RFU, KIAA1704 /// LOC100996395 / Fold change vs veh, KIAA1704 /// LOC100996395 / RFU, ING1 / Fold change vs veh, ING1 / RFU, TRMT61B / Fold change vs veh, TRMT61B / RFU, FUBP3 / Fold change vs veh, FUBP3 / RFU, TP53 / Fold change vs veh, TP53 / RFU, TNKS2 / Fold change vs veh, TNKS2 / RFU, ZFP14 / Fold change vs veh, ZFP14 / RFU, ACTR2 / Fold change vs veh, ACTR2 / RFU, PPP3R1 / Fold change vs veh, PPP3R1 / RFU, PIK3R1 / Fold change vs veh, PIK3R1 / RFU, HNRNPA1 / Fold change vs veh, HNRNPA1 / RFU, RNF170 / Fold change vs veh, RNF170 / RFU, ZNF28 / Fold change vs veh, ZNF28 / RFU, RNGTT / Fold change vs veh, RNGTT / RFU, OGT / Fold change vs veh, OGT / RFU, BRD1 / Fold change vs veh, BRD1 / RFU, MARS / Fold change vs veh, MARS / RFU, ZNF655 / Fold change vs veh, ZNF655 / RFU, FAHD1 / Fold change vs veh, FAHD1 / RFU, BDP1 / Fold change vs veh, BDP1 / RFU, LRRCC1 / Fold change vs veh, LRRCC1 / RFU, ARID1A / Fold change vs veh, ARID1A / RFU, ZNF146 / Fold change vs veh, ZNF146 / RFU, ZNF330 / Fold change vs veh, ZNF330 / RFU, GPN3 / Fold change vs veh, GPN3 / RFU, C9orf123 / Fold change vs veh, C9orf123 / RFU, N4BP2L2 / Fold change vs veh, N4BP2L2 / RFU, ARFIP1 / Fold change vs veh, ARFIP1 / RFU, FAM179B / Fold change vs veh, FAM179B / RFU, BCL10 / Fold change vs veh, BCL10 / RFU, UHRF1BP1L / Fold change vs veh, UHRF1BP1L / RFU, BET1 / Fold change vs veh, BET1 / RFU, CNOT2 / Fold change vs veh, CNOT2 / RFU, ZNF268 / Fold change vs veh, ZNF268 / Fold change vs veh, ZNF507 / RFU, DGCR2 / Fold change vs veh, DGCR2 / RFU, WDSUB1 / Fold change vs veh, WDSUB1 / Fold change vs veh, HSP90B1 /// MIR3652 / RFU, ADSS / Fold change vs veh, ADSS / RFU, GK / Fold change vs veh, GK / RFU, ZNF148 / Fold change vs veh, ZNF148 / RFU, TAF9 / Fold change vs veh, TAF9 / RFU, SLC1A5 / Fold change vs veh, SLC1A5 / RFU, SLMO2 / Fold change vs veh, SLMO2 / RFU, ABCC4 / Fold change vs veh, ABCC4 / RFU, LOC101060439 /// RAP1B / Fold change vs veh, LOC101060439 /// RAP1B / RFU, RFX7 / Fold change vs veh, RFX7 / RFU, GTPBP10 / Fold change vs veh, GTPBP10 / RFU, CNEP1R1 / Fold change vs veh, CNEP1R1 / RFU, BIVM-ERCC5 /// ERCC5 / Fold change vs veh, BIVM-ERCC5 /// ERCC5 / RFU, ILF3 / Fold change vs veh, ILF3 / RFU 11762660_at / Fold change /veh 11762660_at / RFU VCAN (11757783_s_at) / Fold change /veh VCAN (11757783_s_at) / RFU DDX43 (11728927_at) / Fold change /veh DDX43 (11728927_at) / RFU KRT8 (11758188_x_at) / Fold change /veh KRT8 (11758188_x_at) / RFU NKD1 (11759106_at) / Fold change /veh NKD1 (11759106_at) / RFU SRD5A1 (11742802_a_at) / Fold change /veh SRD5A1 (11742802_a_at) / RFU TPSAB1 /// TPSB2 (11721975_s_at) / Fold change /veh TPSAB1 /// TPSB2 (11721975_s_at) / RFU GSTM3 (11746129_a_at) / Fold change /veh GSTM3 (11746129_a_at) / RFU IL23R (11737362_x_at) / Fold change /veh IL23R (11737362_x_at) / RFU TMEM51 (11727254_a_at) / Fold change /veh TMEM51 (11727254_a_at) / RFU PIWIL2 (11732686_x_at) / Fold change /veh PIWIL2 (11732686_x_at) / RFU ORM1 (11744905_x_at) / Fold change /veh ORM1 (11744905_x_at) / RFU CCDC152 (11743942_at) / Fold change /veh CCDC152 (11743942_at) / RFU ECM1 (11717891_a_at) / Fold change /veh ECM1 (11717891_a_at) / RFU IL23R (11748794_a_at) / Fold change /veh IL23R (11748794_a_at) / RFU TNFAIP8L3 (11732012_x_at) / Fold change /veh TNFAIP8L3 (11732012_x_at) / RFU MBOAT4 (11741988_at) / Fold change /veh MBOAT4 (11741988_at) / RFU 11764193_at / Fold change /veh 11764193_at / RFU TMEM53 (11763286_at) / Fold change /veh TMEM53 (11763286_at) / RFU MAGEB2 (11727129_at) / Fold change /veh MAGEB2 (11727129_at) / RFU TMEM200A (11744735_a_at) / Fold change /veh TMEM200A (11744735_a_at) / RFU CCDC152 (11751479_a_at) / Fold change /veh CCDC152 (11751479_a_at) / RFU FAM211A (11726209_a_at) / Fold change /veh FAM211A (11726209_a_at) / RFU RGS16 (11746705_a_at) / Fold change /veh RGS16 (11746705_a_at) / RFU VCAN (11755009_s_at) / Fold change /veh VCAN (11755009_s_at) / RFU RHOB (11743442_s_at) / Fold change /veh RHOB (11743442_s_at) / RFU RGS16 (11720943_a_at) / Fold change /veh RGS16 (11720943_a_at) / RFU RGS16 (11720944_at) / Fold change /veh RGS16 (11720944_at) / RFU, VPS4B / Fold change vs veh, VPS4B / RFU, CREB1 / Fold change vs veh, CREB1 / RFU, DNAJC13 / Fold change vs veh, DNAJC13 / RFU, GNAQ / Fold change vs veh, GNAQ / RFU, CDK5R1 / Fold change vs veh, CDK5R1 / RFU, ZRANB3 / Fold change vs veh, ZRANB3 / RFU, CUL4A / Fold change vs veh, CUL4A / RFU, CCNY / Fold change vs veh, CCNY / RFU, UFL1 / Fold change vs veh, UFL1 / RFU, COG3 / Fold change vs veh, COG3 / RFU, DIAPH2 / Fold change vs veh, DIAPH2 / RFU, SKA2 / Fold change vs veh, SKA2 / RFU, AFF3 / Fold change vs veh, AFF3 / RFU, LMF1 / Fold change vs veh, LMF1 / RFU, IPO11 / Fold change vs veh, IPO11 / RFU, DFFB / Fold change vs veh, DFFB / RFU, FOXP1 / Fold change vs veh, FOXP1 / RFU, CARD8 / Fold change vs veh, CARD8 / RFU, STRN3 / Fold change vs veh, STRN3 / RFU, ADK / Fold change vs veh, ADK / RFU, RASSF2 / Fold change vs veh, RASSF2 / RFU, WIPF1 / Fold change vs veh, WIPF1 / RFU, LARP1B / Fold change vs veh, LARP1B / RFU, RASA1 / Fold change vs veh, RASA1 / RFU, RB1 / Fold change vs veh, RB1 / RFU, PPFIA1 / Fold change vs veh, PPFIA1 / RFU, MAT2A / Fold change vs veh, MAT2A / RFU, CCT5 / Fold change vs veh, CCT5 / RFU, WDR92 / Fold change vs veh, WDR92 / RFU, CUX1 / Fold change vs veh, CUX1 / RFU, TTC7A / Fold change vs veh, TTC7A / RFU, TMEM135 / Fold change vs veh, TMEM135 / RFU, DEPTOR / Fold change vs veh, DEPTOR / RFU, CPM / Fold change vs veh, CPM / RFU, DNAJB6 / Fold change vs veh, DNAJB6 / RFU, CACNA2D3 / Fold change vs veh, CACNA2D3 / RFU, DTX4 / Fold change vs veh, DTX4 / RFU, TFCP2 / Fold change vs veh, TFCP2 / RFU, GMCL1 /// GMCL1P1 / Fold change vs veh, GMCL1 /// GMCL1P1 / RFU, AEBP2 / Fold change vs veh, AEBP2 / RFU, SNHG1 /// SNORD22 /// SNORD25 /// SNORD26 /// SNORD27 /// SNORD28 /// SNORD29 /// SNORD31 / Fold change vs veh, SNHG1 /// SNORD22 /// SNORD25 /// SNORD26 /// SNORD27 /// SNORD28 /// SNORD29 /// SNORD31 / Fold change (Aza/veh), C12orf56 (ProbeSet 11735607_a_at) / Fold change (ACY-1035/veh), C12orf56 (ProbeSet 11735607_a_at) / Fold change (Aza/veh), FGFR1OP (ProbeSet 11751329_s_at) / Fold change (ACY-1035/veh), FGFR1OP (ProbeSet 11751329_s_at) / Fold change (Aza/veh), VPS36 (ProbeSet 11739960_a_at) / Fold change (ACY-1035/veh), VPS36 (ProbeSet 11739960_a_at) / RFU SYPL1 (11715823_x_at) / Fold change /veh SYPL1 (11715823_x_at) / RFU IGFBP7 (11715501_s_at) / Fold change /veh IGFBP7 (11715501_s_at) / RFU REEP3 (11722064_at) / Fold change /veh REEP3 (11722064_at) / RFU IGLL1 (11728026_x_at) / Fold change /veh IGLL1 (11728026_x_at): dose or concentration left out as unconfirmed
Conditions: ProbeSet 11730501_a_at; LIST D

**Q.** Nc1ncn([C@@H]2O[C@H](CO)[C@@H](O)[C@H]2O)c(=O)n1 [azacitidine] was tested. Which “Fold change vs veh, CACNA2D3” value did it give?
**A.** The value was 0.63.
